Legend:
[1] = molecular target: T1, human serotonin transporter (SERT) (Homo sapiens, UniProt P31645); assay: biochemical; assay type: binding; settings: 1 nM imipramine; membranes containing human SERT; read-out: SERT, Ki
T1 construct: purchased PerkinElmer RBHSTM400UA
Procedure: A commonly applied SERT binding assay involves competition binding assays employing radiolabelled ligands. […] Radioactive binding assays were carried out using the Scintillation Proximity Assay (SPA). For saturation binding assay, mixtures of 9 μg of membrane containing human SERT was pre-coupled to 1 mg of SPA beads at room temperature in a tube rotator for 1 hour in binding buffer (50 mM Tris-HCl pH7.4, 120 mM NaCl, 5 mM KCl, 1 mM ascorbic acid, 10 μM pargyline HCl). […] After incubation, the samples are read on a MicroBeta 2 Microplate Counter. Non-specific binding was carried out in the presence of 200 μM of clomipramine hydrochloride (C7291-1G, Sigma). Equilibrium binding constant for imipramine (KD) was determined from saturation binding curve using one-site saturation binding analysis from GraphPad PRISM software (Version 9.2.0). All test compounds were dissolved to 100 mM in DMSO and dilutions were carried out in assay buffer. […] Ki values were calculated from the competition displacement data using the competitive binding analysis from GraphPad PRISM software. […] Vehicle (DMSO) without drug was used as a negative control.

[2] = system: human model (NT2) neurons; assay: Neuroplastogenicity (neurite outgrowth) assay in NT2 neurons; assay type: cell-based; design: key: a positive (+) designation indicating strong evidence of enhanced neurite outgrowth in drug-treated NT2 cells compared to vehicle-treated cells; a negative (−) designation indicating weak or no evidence of enhanced neurite outgrowth in drug-treated NT2 cells compared to vehicle-treated cells; settings: 1 or 10 μM, 48 h, visual inspection vs vehicle (0.1% DMSO)
Description: Classic psychedelics such as psilocybin and DMT show potential to treat anxiety and depression, and it has been theorized that such long-term improvements arise because these drugs rapidly and lastingly stimulate neuroplasticity (Calder and Hasler, 2023, Neuropsychopharmacol. 48:104-112). Thus, it was of interest to determine the potential of new compounds as neuroplastogens. Herein, we assess the capacity of various compounds to enhance neurite outgrowth in human model (NT2) neurons.
Human NT2/D1 precursor cells were purchased from the American Type Culture Collection (ATCC, Manassas, VA, USA). Neuronal differentiation was carried out as previously described (Roloff et al., 2015, PloS ONE 10:e0118536) with minor modifications. Firstly, NT2/D1 cells were seeded in T-25 suspension culture flasks (REF #690190, Greiner bio-one, Germany). Each flask contains a minimum of 5×10^6 cells in 10 ml of DMEM/F12 supplemented with 10% fetal bovine serum (FBS), 1% penicillin and streptomycin and 10 μM retinoic acid (RA) medium to start neuronal differentiation. The cells were cultured for 3 days in free floating medium. At the end of the incubation cells were trypsinized and collected by centrifugation, mechanically dispersed, and counted. Counted cells were seeded along Poly D-Lysine (PDL) coated cover slips (12 mm; diameter round, Fisher Scientific; GG-12-PDL) containing a minimum of 0.1×10^5 cells in culture medium without RA. The next day culture medium was replaced with RA medium containing 2% of FBS. These cells cultured for 5 days and two days later, RA medium was changed.
After cells had successfully attached and established along coverslips, the RA medium was replaced with new medium containing 2% FBS and one of the following: (1) test compound (1 or 10 μM), (2) RhoK (ROCK) inhibitor Y-27632 (1 μM) as a positive control (Dihydrochloride; Sigma-Aldrich) (Roloff et al., 2015, PloS ONE 10:e0118536); (3) DMT (1 or 10 μM) as a positive control (Calder and Hasler, 2023, Neuropsychopharmacol. 48:104-112), or (4) vehicle (0.1% DMSO) as a negative control. These cells were incubated for 48 hours under standard conditions (370C, 5% CO2). The cells cultured along coverslips were collected after 48 hours of treatment. The coverslips washed with calcium chloride and magnesium chloride-free phosphate buffered saline (PBS) pH 7.4 (Gibco, #70011-044) and fixed in paraformaldehyde (PFA) 4% in PBS (#J61899, thermoscientific) for 15 min at room temperature (RT) and washed three times with 0.01% of Triton-X100 in PBS (PBST) to remove remaining PFA and to permeabilize the cells. Non-specific binding sites were blocked with 5% of Bovine Serum Albumin (BSA) solution (#9048-46-8, Millipore) in PBST for 60 minutes at RT. Rabbit monoclonal antibody β-III-tubulin (1:5,000, ab52623, Abcam) was applied overnight (O/N) at 4° C. Next day cells are washed three times in PBST, neurons were incubated with secondary antibody Donkey anti-rabbit IgG(H+L) Alexa Fluor™ Plus488 (1:5000 #A32790, Invitrogen) for 1 hour at RT. These coverslips were mounted on Gluoromount-G™, with 4′6-diamidino-2′henylindoldihydrochloride (DAPI) (#E141818, Invitrogen). The immunofluorescence images were analyzed using an Olympus VS110 slide scanner microscope.
B-III-Tubulin immunofluorescence was quantified using ImageJ. Briefly, Corrected Total Cell Fluorescence (CTCF) was acquired for at least ˜8-10 representative cells, where CTCF=Integrated Density−[Area of selected cell*Mean Fluorescence of background]. The CTCF values, referred to herein as ‘signal intensities’, were used to calculate overall means±SD for each treatment. One-Way ANOVA was used to compare treatments. Further, the mean of each treatment was compared with the mean of the control treatment (RA-differentiated cells treated with vehicle, 0.1% DMSO) using Dunnett's multiple comparison procedure. […]

[3] = system: C57BL/6 mice; assay: Mouse Head Twitch Response (HTR) assay to assess hallucinogenic potential; assay type: in vivo; settings: for mean HTR / HTR compared with the HTR response for 5-Br-DMT (one-way ANOVA, Dunnett): 3 mg/kg i.p.; for mean HTR: 0-15 min interval (preliminary screening); for HTR compared with the HTR response for 5-Br-DMT (one-way ANOVA, Dunnett): alpha 0.05; for HTR: 0-15 min (dose curve)
Procedure: All experiments were approved by the University of Calgary Animal Care and Use Committee in accordance with Canadian Council on Animal Care guidelines. C57BL/6-Elite mixed sex mice were obtained from Charles River (8 weeks old). Until the first experiment, mice were group-housed, then single-housed on a 12:12 h light/dark schedule (lights on at 07:00 hours) with ad libitum access to food and water. Before any behavioral screening, mice were handled and exposed to the testing chamber for at least 5 min each day for three successive days and habituated to the experimental room 1 h before testing. The testing chamber was cleaned with a 70% ethanol solution between experiments to eliminate odor from other mice. Drug compounds (100 mM in DMSO) were diluted in sterile excipient (10% EtOH/15% PEG400 in ddH2O) to 3 mg/kg (preliminary screening) or 0.5, 2, 4, 7, and 10 mg/kg (dose-curve analysis) and administered using intraperitoneal (i.p.) drug injections. […] HTR was analyzed during the 0-to-15-minute window following drug administration. […] Mean HTR between 10 and 5 signifies reduced hallucinogenic potential relative to positive controls.

T1 sequence (P31645 whole entry): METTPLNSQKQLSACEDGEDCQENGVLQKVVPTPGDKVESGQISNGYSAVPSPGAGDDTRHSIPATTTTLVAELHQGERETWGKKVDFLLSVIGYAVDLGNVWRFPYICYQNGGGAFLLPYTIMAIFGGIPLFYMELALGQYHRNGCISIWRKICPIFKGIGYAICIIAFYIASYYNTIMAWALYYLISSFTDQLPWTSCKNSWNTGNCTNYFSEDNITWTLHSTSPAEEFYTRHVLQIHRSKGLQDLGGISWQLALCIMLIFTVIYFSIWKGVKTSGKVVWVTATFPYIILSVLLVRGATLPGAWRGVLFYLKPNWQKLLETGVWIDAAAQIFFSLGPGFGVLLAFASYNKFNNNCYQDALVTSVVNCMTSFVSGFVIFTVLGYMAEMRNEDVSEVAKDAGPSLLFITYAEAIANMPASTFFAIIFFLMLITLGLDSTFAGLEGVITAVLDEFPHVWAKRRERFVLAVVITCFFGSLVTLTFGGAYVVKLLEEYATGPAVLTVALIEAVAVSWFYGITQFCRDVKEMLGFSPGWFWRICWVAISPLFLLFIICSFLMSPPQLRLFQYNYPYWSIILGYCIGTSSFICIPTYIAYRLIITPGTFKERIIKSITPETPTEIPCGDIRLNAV

CN(C)CCc1c[nH]c2cc(F)cc(N3CCOCC3)c12 [Compound (XV)]
Ki [1]: 9.13 µM
Evidence of neurite outgrowth: Yes (+) or No (−) [2]: +
mean HTR [3]: 5.0±0.82
HTR compared with the HTR response for 5-Br-DMT (one-way ANOVA, Dunnett) [3]: not statistically significantly higher
HTR over increasing dosage ([3]; 0.5-10 mg/kg i.p., 0-15 min): remains low

CN(C)CCc1c[nH]c2cc(N3CCCC3)cc(F)c12 [Compound (XVIII)]
Ki [1]: 39.2 µM
Evidence of neurite outgrowth: Yes (+) or No (−) [2]: +
mean HTR [3]: 5.25
HTR compared with the HTR response for 5-Br-DMT (one-way ANOVA, Dunnett) [3]: not statistically significantly higher
HTR ([3]; 10 mg/kg i.p. (maximum dose)): > 20

CN(C)CCc1c[nH]c2cc(N3CCC3)ccc12 [Compound (XII)]
Ki [1]: 1.68 µM
Evidence of neurite outgrowth: Yes (+) or No (−) [2]: +
mean HTR [3]: 6.25
HTR compared with the HTR response for 5-Br-DMT (one-way ANOVA, Dunnett) [3]: not statistically significantly higher
HTR ([3]; 7 mg/kg i.p.): ~20
HTR ([3]; 10 mg/kg i.p. (maximum dose)): ~12

CC(C)N(C)CCc1c[nH]c2cc(N3CCOCC3)c(F)cc12 [Compound (XVII)]
Evidence of neurite outgrowth: Yes (+) or No (−) [2]: +
mean HTR [3]: 22.25
HTR ([3]; 10 mg/kg i.p. (maximum dose)): ~40

Source: patent US12577232B2, “N-heterocycle substituted tryptamine derivatives and methods of using” (ENVERIC B[…] INC., priority 2024, dated 2026)
